Each block holds one molecule with its values, some of them ahead of it.
Columns and labels:
[1] = Oligonucleotide probe stability in buffer and cell media; format: physicochemical; conditions: over a 35-hour period
27mer DNA template [2] = test: Template-driven ligation of tetrazine and cyclopropene oligonucleotide probes (fluorescence); format: biochemical; conditions: for change in fluorescence in the absence of template: 1 μM probes, no template
Description: Tetrazine and cyclopropene-modified oligonucleotide probes were ligated in the presence of a DNA or RNA template at a 1:1:1 ratio. Reactions were done in varying solution and temperature conditions, as indicated. Main hybridization buffer was 50 mM MOPS at pH 7.5, 250 mM NaCl. Ligation reactions with a mismatched DNA template were performed in 5 mM MgCl2 in standard 1× Tris-borate buffer (purchased as 10× UltraPure TBE from Invitrogen: 1.0 M Tris pH 8.4, 0.9 M Boric acid, 10 mM EDTA).
Ligation reactions were done in standard 96 fluorescence well plates using SpectraMax GeminiXS (Molecular Devices). Temperature was set by the instrument. Where indicated by standard deviations, experiments were performed multiple times. In order to avoid any secondary structure artifacts, DNA or RNA template with added tetrazine probe was first heated to 90° C. and crash-cooled on ice for 2 min right before the experiment. Each well was filled with a total of 100 μL reaction solution, and reactions were timed from the addition of the cyclopropene probe as the last step before starting the measurements. Wells were scanned every 20-60 s depending on the speed of the reactions by using 485 nm excitation and 538 nm emission with the cutoff set at 495 nm. Control reactions without template were done in parallel each time. Buffer-only well intensities were subtracted from the measured raw data before analysis. Data was analyzed using GraphPad Prism 6.0 by applying a nonlinear fit of a one-phase association to each curve where fluorescein signal during reaction was measured.

27mer DNA template [3] = test: Melting temperatures of DNA template with probes and ligation products; format: physicochemical; conditions: hybridization target against 27mer template; 250 mM NaCl in buffer; 1 μM each oligonucleotide
Description: Melting temperature of probes and ligation products in hybridization buffer (50 mM MOPS pH 7.5, 250 mM NaCl) were measured using a Beckman-Coulter DU 640 spectrophotometer equipped with a high performance temperature controller and micro auto six-cell holder. Samples at 1 μM concentration of each oligonucleotide were heated to 90° C. and slowly cooled to RT over 1-1.5 h before the measurements. Melting temperature values were obtained by cooling samples from 90° C. to 20° C. at the rate of 1° C./min and measuring at 1° C. increments with each read averaged over 1 s.

[4] = system: LS174T human colon cancer cells; test: Simultaneous imaging of two metabolically incorporated unnatural sugars and cross reactivity; format: cell-based
Description: (§1) The SKBR3 and LS174T cells were incubated for two days in the presence of 100 μM of Ac4ManNCyc and/or 50 μM Ac4GlcNAz on a Lab-Tek chamber slide maintained in cDMEM medium. Treatment of cells with tunicamycin was done by preparing a 0.2 mg/mL stock in DMSO, which was diluted to a final working concentration of 1.2 μM tunicamycin in cDMEM (0.5% DMSO). Cells were washed 3× with phosphate-buffered saline (PBS) and incubated for 1 hour at 37° C. in 10 μM tetrazine-BODIPY TMR-X, 10 μM tetrazine-Alexa flour 488 and/or 15 μM dibenzocyclooctyne (DIBO)-Alexa Fluor 647 in cDMEM. The media was aspirated, and cells were washed twice with PBS before imaging. All photos were collected with an Olympus FV1000 confocal microscope using ImageJ 1.45j software package.
Finally, we tested whether or not we could simultaneously image two different metabolically incorporated unnatural sugar derivatives, Ac4ManNCyc and tetraacetylated N-azidoacetylgalactosamine (Ac4GalNAz). […] Recent experimental work has shown that alkenes and azides can be mutually orthogonal to each other, even when using highly strained trans-cyclooctenes. Additionally, the Houk group has calculated that methyl-cyclopropene handles, such as those we have previously developed, should be mutually orthogonal to azide cyclooctyne reactions. We incubated LS174T human colon cancer cells with 100 μM Ac4ManNCyc and Ac4GalNAz for 2 days. After incubation, we sequentially stained the cells with 10 μM tetrazine-Alexa Fluor 488 and 15 μM dibenzocyclooctyne (DIBO) 647. […] Similar results were obtained with the SKBR3 cell line. […] The ability to simultaneously label two different metabolically incorporated molecules using live-cell compatible inverse-Diels-Alder and Huisgen reactions expands the capabilities of bioorthogonal metabolic imaging.

[5] = Aqueous stability of methyl-cyclopropenes by 1H NMR; format: physicochemical; conditions: for aqueous stability: aqueous deuterated solutions (D2O/DMSO-d6=4:1)
Text: (§2) After synthesizing the new cyclopropene mini-tags, we next sought to compare their reactivity with tetrazines through inverse Diels-Alder cycloaddition. Additionally, we also assayed their aqueous stability, since methyl-cyclopropene tags are envisioned to find application in bioorthogonal coupling reactions. In order to monitor kinetics, we reacted eight representative methyl-cyclopropenes with 1-methyl-4-aryl tetrazine under pseudo-first order conditions, and tracked the reaction of tetrazine by monitoring the disappearance of the characteristic absorption at 530 nm, similar to previous reports. For stability experiments, we incubated methyl-cyclopropenes in aqueous deuterated solutions (D2O/DMSO-d6=4:1) as indicated.

[6] = Reactivity of methyl-cyclopropene mini-tags with tetrazine, pseudo-first order; format: physicochemical; conditions: for rate of reaction with tetrazines (in words): aqueous solvent
Text: as §2

[7] = Storage stability of cyclopropene derivatives; format: physicochemical; conditions: for storage stability at −20° C.: stored at −20° C.
SKBR3 cells = test: Live-cell microscopy of metabolically incorporated cyclopropene sugar; format: cell-based, human; conditions: glycosylation inhibitors or 20 mM ManNAc as competitive substrate
Description: SKBR3 and LS 174T cells were grown in cDMEM media supplemented with 10% fetal bovine serum, 1% L-glutamine, 1% penicillin/streptomycin. Cells were incubated in 5.0% carbon dioxide, 95% humidity at 37° C. Generally, cells were grown in T-75 tissue culture flasks, seeded at densities between 500,000 and 750,000 cells per flask (cells were quantified with the Life Technologies Countess automated cell counter). The cells were trypsinized with TrypLE Express and resuspended in cDMEM. Cells were allowed to incubate for two days before supplementing with Ac4ManNCyc (N-cyclopropeneacetylmannosamine) or Ac4GlcNAz (N-azidoacetylglucosamine). The cells were then analyzed via confocal microscopy and flow cytometry as described below.
as §1
In order to determine if Ac4ManNCyc was incorporated effectively by cells, we incubated adherent human breast cancer (SKBR3) and colon cancer (LS174T) cell lines with 100 μM Ac4ManNCyc for 48 hours in cell media and serum. After incubation, cells were thoroughly washed and then reacted for 1 hour with 10 μM of fluorogenic Alexa Fluor 488 tetrazine. After a second wash, cells were imaged by confocal microscopy (Olympus FV1000). […] In order to ensure that the staining was due to glycan uptake of the probe, we also performed controls by exposing cells to 100 μM Ac4ManNCyc and inhibiting uptake by using glycosylation inhibitors (ie. tunicamycin and αBnGalNAc) or 20 mM of ManNAc as a competitive substrate.^[14] […] These experiments provide evidence that the staining patterns are reporting on glycosylation and uptake of the unnatural cyclopropene mannosamine. We also performed additional studies using flow cytometry to quantitate the relative uptake of sugars that corroborated the imaging data.

[8] = Reaction rate determination of cyclopropenes with tetrazine 3; format: physicochemical
Description: A tetrazine 3 stock solution was prepared in DMSO and used to prepare tetrazine solutions at 0.6 mM final concentration in 12% v/v DMSO in ddH2O. Reactions were initiated with excess cyclopropene at final concentrations of 6.0, 8.0, and 10.0 mM. The disappearance of the tetrazine absorption peak at 520 nm was tracked over the reaction timeframe by measuring the absorption spectra using a NanoDrop 2000c spectrophotometer (Thermo Scientific). Samples were placed in a quartz cuvette with 10-mm pathlength and stirred at the maximum speed setting of the instrument. The temperature was uncontrolled by the instrument for room temperature (20° C.) measurements, and set and equilibrated at 37° C. for the higher temperature experiments.
Absorption spectra were measured manually over time. Absorption peak signal was taken as the average of measurements at 519-521 nm. Baseline signal was determined as the sloping line connecting the measured background levels preceding and following the tetrazine peak (410-430 nm and 590-610 nm, respectively). Final peak intensity value was taken as the signal above the baseline. Reaction rates were obtained by fitting the exponential decays of tetrazine peak absorption intensity as a pseudo first order reaction. Nonlinear data fits were performed with GraphPad Prism. Tetrazine reactions with cyclopropene carbamate 5 were carried out at 20 and 37° C. (data points and corresponding fitted curves at 20° C. in FIG. 51, 37° C. in FIG. 2c). Tetrazine reactions with cyclopropene carboxamide 2 were done at 37° C. ([…]. A representative comparison fit is shown for cyclopropenes 5 and 2 at 8.0 mM concentration reacting at 37° C. with 0.6 mM tetrazine.

Molecule: 13merFl5′tet: 5′-tetrazine-/5AmMC6//iFluorT/CG ATG GCG TCA A-3′ (SEQ ID NO:4) (DNA CGATGGCGTCAA; 5' tetrazine, amino C6 linker, internal fluorescein-dT, chemistry not fully specified)
autohydrolytic turn-on [1]: minimal
change in fluorescence in the absence of template (27mer DNA template [2]; listed as 13merF15′tet): no appreciable change in fluorescence over time
change in fluorescence in the absence of template (27mer DNA template [2]; listed as Fluorogenic tetrazine probe): does not turn on
increase in the peak emission intensity (27mer DNA template [2]; reaction with the cyclopropene probe in the presence of a DNA template): 9.3 fold
Melting T (27mer DNA template [3]): 57.4 °C

Molecule: CC(=O)OC[C@H]1OC(OC(C)=O)[C@H](NC(=O)CN=[N+]=[N-])[C@@H](OC(C)=O)[C@H]1OC(C)=O (stereo partly drawn) [Ac4GalNAz, tetraacetylated N-azidoacetylgalactosamine, reference compound]
cell surface staining after co-incubation of both sugars ([4]; 100 μM, 2 days, stained with 10 μM tetrazine-Alexa Fluor 488 and 15 μM DIBO 647): cell surface staining in both the fluorescent channels
cross reactivity: surface staining with tetrazine-Alexa Fluor 488 ([4]; cells incubated with only this sugar): minimal surface staining

Molecule: CC1=CC1/C=C/C(=O)O (stereo not drawn) [Compound 13]
aqueous stability [5]: unstable to incubation in aqueous solvent at 37 °C

aqueous stability [5]: greatly improved stability
Molecule: CC1=CC1/C=C/C(=O)NCCO (stereo not drawn) [Compound 14]
rate of reaction with tetrazines (in words) [6]: significantly lowered the rate of reaction with tetrazines

storage stability at −20° C. [7]: not stable to long-term storage
time to complete decomposition ([5]; D2O/DMSO-d6=4:1 at room temperature): 10.5 h
aqueous stability [5]: unstable in aqueous solution
Molecule: CC1=CC1/C=C/CO (stereo not drawn) [Compound 16]
rate of reaction with tetrazines (in words) [6]: greatly increased the reaction rate

Molecule: CC(=O)N[C@H]1[C@@H](O)[C@H](O)[C@@H](CO)O[C@@H]1O [ManNAc]
effect on staining of cells exposed to 100 μM Ac4ManNCyc (SKBR3 cells): lowered fluorescent signal

Molecule: CC1=C([Si](C)(C)C)C1C=O (stereo not drawn) [cyclopropen aldehyde 11]
storage stability at −20° C. [7]: slowly degrading over 48 hours

Molecule: CC1=CC1C(N)=O (stereo not drawn) [cyclopropene 2, 2-methylcycloprop-2-enecarboxamide]
long-term storage stability [7]: could be stored for extended periods of time without degradation
second order rate constant ([8]; 37° C., water/DMSO (12% DMSO by volume)): 0.137 ± 0.004 M⁻¹ s⁻¹

long-term storage stability [7]: not amenable long-term storage
Molecule: CC1=C([Si](C)(C)C)C1CN (stereo not drawn) [cyclopropene amine 3]

Molecule: CC1=C([Si](C)(C)C)C1CN=[N+]=[N-] (stereo not drawn) [cyclopropene azide 2]
long-term storage stability [7]: not amenable long-term storage

Molecule: CC(=O)N[C@H]1[C@@H](OCc2ccccc2)O[C@H](CO)[C@H](O)[C@@H]1O [αBnGalNAc]
effect on staining of cells exposed to 100 μM Ac4ManNCyc (SKBR3 cells): severely diminished staining

Molecule: cyclopropene carbamate
rates of cycloaddition with unsubstituted tetrazine relative to methyl-tetrazine ([6]; previous studies with faster reacting unsubstituted tetrazine): 36 fold faster
rate of cycloaddition relative to cyclopropene amide 1 ([8]; reacting with tetrazine 3 in aqueous solution): approximately one-hundred times faster

Molecule: tunicamycin
effect on staining of cells exposed to 100 μM Ac4ManNCyc (SKBR3 cells): severely diminished staining

Source: patent US9533957B2, “Tetrazines and method of synthezising the same” (The Regents of the University of California, priority 2012, dated 2017)
